Assays:
Format in all cases: biochemical
KRAS WT = target: T1, KRAS WT (Homo sapiens, UniProt P01116); assay: HTRF KRAS-SOS1 interaction assay, wildtype KRAS; details: binned ≤2 μM / >2 μM, read-out: Inhibition of KRAS WT (IC50)
T1 construct: made in house; host or cells: E. coli, e.g. BL21 (DE3)
Text: (§1) This assay can be also used to assess a selective inhibition or reduction of signaling output of a mutant Ras protein relative to a wildtype, or relative to a different mutant Ras protein. For example, the equilibrium interaction of wildtype KRAS or K-Ras mutant (e.g., wildtype or a mutant thereof) with SOS1 (e.g., hSOS1) can be assessed as a proxy or an indication for the ability of a subject compound to bind and inhibit Ras protein. The HTRF assay detects from (i) a fluorescence resonance energy transfer (FRET) donor (e.g., antiGST-Europium) that is bound to GST-tagged K-Ras mutant to (ii) a FRET acceptor (e.g., anti-6His-XL665) bound to a His-tagged hSOS1.
(§2) The assay buffer can contain ˜5 mM HEPES pH 7.4, ˜150 mM NaCl, ˜1 mM DTT, 0.05% BSA and 0.0025% (v/v) Igepal. A Ras working solution is prepared in an assay buffer containing typically a suitable amount of the protein construct (e.g., GST-tagged K-Ras mutant) and the FRET donor (e.g., antiGST-Eu (K) from Cisbio, France). A SOS1 working solution is prepared in an assay buffer containing suitable amount of the protein construct (e.g., His-hSOS1) and the FRET acceptor (e.g., anti-6His-XL665 from Cisbio, France). A suitable amount of the protein construct will depend on the range of activity or range of IC50 values being detected or under investigation. For detecting an IC50 within a range of 500 nM, the protein constructs of the same range of molarity can be utilized.
(§3) A fixed volume of DMSO with or without test compound is transferred into a 384-well plate. Ras working solution is added to all wells of the test plate. SOS1 working solution is added to all wells except for those that are subsequently filled with inhibitor control solution. Upon incubation for about 10 minutes or longer, the fluorescence is measured with a M1000Pro plate reader (Tecan) using HTRF detection (excitation 337 nm, emission 1:620 nm, emission 2:665 nm). Compounds are tested in duplicate at different concentrations (for example, 10 μM, 2.5 μM, 0.63 μM, 0.16 μM, 0.04 μM, 0.01 μM test compound). The ratiometric data (i.e., emission 2 divided by emission 1) is used to calculate IC50 values against Ras using GraphPad Prism (GraphPad software). Signaling output measured in terms of IC50 values can be obtained and a ratio of IC50 against one mutant relative to another mutant can be calculated.

KRAS G12V = target: T2, KRAS G12V (Homo sapiens, UniProt P01116, G12V); assay: HTRF KRAS-SOS1 interaction assay, KRAS G12V; details: binned ≤2 μM / >2 μM, read-out: Inhibition of KRAS G12V (IC50)
T2 construct: made in house; host or cells: E. coli, e.g. BL21 (DE3)
Text: as §1, §2, §3

KRAS G12S = target: T3, KRAS G12S (Homo sapiens, UniProt P01116, G12S); assay: HTRF KRAS-SOS1 interaction assay, KRAS G12S; details: binned ≤2 μM / >2 μM, read-out: Inhibition of KRAS G12S (IC50)
T3 construct: made in house; host or cells: E. coli, e.g. BL21 (DE3)
Text: as §1, §2, §3

T2 sequence (P01116 1-188 isoform P01116-2 G12V): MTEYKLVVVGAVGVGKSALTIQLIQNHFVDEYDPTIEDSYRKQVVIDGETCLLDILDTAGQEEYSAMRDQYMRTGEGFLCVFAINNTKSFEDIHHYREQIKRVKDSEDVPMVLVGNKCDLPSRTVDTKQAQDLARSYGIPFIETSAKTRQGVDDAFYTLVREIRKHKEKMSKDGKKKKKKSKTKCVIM
T1 sequence (P01116 1-188 isoform P01116-2): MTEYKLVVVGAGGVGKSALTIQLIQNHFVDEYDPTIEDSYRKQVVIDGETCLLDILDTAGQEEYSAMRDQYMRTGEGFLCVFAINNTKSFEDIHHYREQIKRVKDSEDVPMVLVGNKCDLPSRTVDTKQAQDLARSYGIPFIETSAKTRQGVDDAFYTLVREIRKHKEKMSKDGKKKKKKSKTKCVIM
T3 sequence (P01116 1-188 isoform P01116-2 G12S): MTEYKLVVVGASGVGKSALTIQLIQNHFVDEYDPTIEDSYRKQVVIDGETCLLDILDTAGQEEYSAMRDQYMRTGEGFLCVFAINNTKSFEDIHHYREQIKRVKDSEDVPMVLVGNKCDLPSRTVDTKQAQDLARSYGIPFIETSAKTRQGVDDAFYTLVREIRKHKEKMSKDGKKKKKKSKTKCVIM

| IC50 (KRAS WT) [µM] | IC50 (KRAS G12V) [µM] | IC50 (KRAS G12S) [µM] | Structure (SMILES) |
| --- | --- | --- | --- |
| ≤ 2 | ≤ 2 | ≤ 2 | CO/N=C1\CN2CCC[C@@]2(COc2nc3c4c(c(Cl)c(-c5ccc(F)c6sc(N)c(C#N)c56)c(F)c4n2)OCCN3[C@H](C)c2cccnc2N)C1 (single isomer, unassigned) [Compound 607] |
| ≤ 2 | ≤ 2 | ≤ 2 | N#Cc1c(N)sc2c(F)ccc(-c3c(C(F)(F)F)c4c5c(nc(OC[C@@]67CCCN6C[C@H](F)C7)nc5c3F)N([C@@H](c3cccnc3N)C(F)F)CCO4)c12 (single isomer, unassigned) [Compound 625] |
| ≤ 2 | ≤ 2 | ≤ 2 | CCO/N=C1\CN2CCC[C@@]2(COc2nc3c4c(c(Cl)c(-c5ccc(F)c6sc(N)c(C#N)c56)c(F)c4n2)OCCN3[C@H](C)c2cccnc2N)C1 (single isomer, unassigned) [Compound 627] |
| ≤ 2 | ≤ 2 | ≤ 2 | C[C@H](c1cccnc1N)N1CCOc2c(Cl)c(-c3ccc(F)c4sc(N)c(C#N)c34)c(F)c3nc(OCC4(CN(C)C)CC4)nc1c23 (single isomer, unassigned) [Compound 638] |
| ≤ 2 | ≤ 2 | ≤ 2 | C[C@H](c1cccnc1N)N1CCOc2c(Cl)c(-c3ccc(F)c4sc(N)c(C#N)c34)c(F)c3nc(OCC45CCCN4C[C@H](OCCCP(C)(C)=O)C5)nc1c23 (single isomer, unassigned) [Compound 677] |
| ≤ 2 | ≤ 2 | ≤ 2 | C[C@H](c1cccnc1N)N1CCOc2c(C(F)(F)F)c(-c3ccc(F)c4sc(N)c(C#N)c34)c(F)c3nc(OC[C@@]45CCCN4CC(C#N)C5)nc1c23 (single isomer, unassigned) [Compound 663] |
| ≤ 2 | ≤ 2 | ≤ 2 | N#Cc1c(N)sc2c(F)ccc(-c3c(C(F)(F)F)c4c5c(nc(OC[C@@]67CCCN6C[C@H](F)C7)nc5c3F)N([C@H](CCC3CCOCC3)c3cccnc3N)CCO4)c12 (single isomer, unassigned) [Compound 611] |
| ≤ 2 | ≤ 2 | ≤ 2 | C[C@H](c1cccnc1N)N1CCOc2c(C(F)(F)F)c(-c3cccc4sc(N)c(C#N)c34)c(F)c3nc(OC[C@@]45CCCN4C[C@H](F)C5)nc1c23 (single isomer, unassigned) [Compound 678] |
| ≤ 2 | ≤ 2 | ≤ 2 | CN(C)CC[C@H](c1cccnc1N)N1CCOc2c(C(F)(F)F)c(-c3ccc(F)c4sc(N)c(C#N)c34)c(F)c3nc(OC[C@@]45CCCN4C[C@H](F)C5)nc1c23 (single isomer, unassigned) [Compound 669] |
| ≤ 2 | ≤ 2 | ≤ 2 | N#Cc1c(N)sc2c(F)ccc(-c3c(Cl)c4c5c(nc(OC[C@@]67CCCN6C[C@H](F)C7)nc5c3F)N(C(CC(F)F)c3cccnc3N)CCO4)c12 (mixture of isomers) [Compound 681, 2-amino-4-(4-(1-(2-aminopyridin-3-yl)-3,3-difluoropropyl)-8-chloro-10-fluoro-2-(((2R,7aS)-2-fluorotetrahydro-1H-pyrrolizin-7a(5H)-yl)methoxy)-5,6-dihydro-4H-[1,4]oxazepino[5,6,7-de]quinazolin-9-yl)-7-fluorobenzo[b]thiophene-3-carbonitrile] |
| ≤ 2 | ≤ 2 | ≤ 2 | C[C@H](c1cccnc1N)N1CCOc2c(Cl)c(-c3cccc4sc(N)c(C#N)c34)c(F)c3nc(OC[C@@]45CCCN4CC(=C(F)F)C5)nc1c23 (single isomer, unassigned) [Compound 660] |
| ≤ 2 | ≤ 2 | ≤ 2 | C=CC[C@H](c1cccnc1N)N1CCOc2c(C(F)(F)F)c(-c3ccc(F)c4sc(N)c(C#N)c34)c(F)c3nc(OC[C@@]45CCCN4C[C@H](F)C5)nc1c23 (single isomer, unassigned) [Compound 616] |
| ≤ 2 | ≤ 2 | ≤ 2 | CC(c1cccnc1N)N1CCOc2c(Cl)c(-c3ccc(F)c4sc(N)c(C#N)c34)c(F)c3nc(OC[C@@]45CCCN4C[C@H](F)C5)nc1c23 (single isomer, unassigned) [Compound 656] |
| ≤ 2 | ≤ 2 | ≤ 2 | CS(=O)(=O)CCC[C@H](c1cccnc1N)N1CCOc2c(C(F)(F)F)c(-c3ccc(F)c4sc(N)c(C#N)c34)c(F)c3nc(OC[C@@]45CCCN4C[C@H](F)C5)nc1c23 (single isomer, unassigned) [Compound 629] |
| ≤ 2 | ≤ 2 | ≤ 2 | C[C@H](c1ccc(F)nc1N)N1CCOc2c(C(F)(F)F)c(-c3ccc(F)c4sc(N)c(C#N)c34)c(F)c3nc(OC[C@@]45CCCN4C[C@H](F)C5)nc1c23 (single isomer, unassigned) [Compound 628] |
| ≤ 2 | ≤ 2 | ≤ 2 | C#C[C@H]1COc2c(Cl)c(-c3ccc(F)c4sc(N)c(C#N)c34)c(F)c3nc(OC[C@@]45CCCN4C[C@H](F)C5)nc(c23)N1C(C)c1cccnc1N (single isomer, unassigned) [Compound 664] |
| ≤ 2 | ≤ 2 | ≤ 2 | CC(c1cncnc1N)N1CCOc2c(Cl)c(-c3ccc(F)c4sc(N)c(C#N)c34)c(F)c3nc(OC[C@@]45CCCN4C[C@H](F)C5)nc1c23 (single isomer, unassigned) [Compound 646] |
| ≤ 2 | ≤ 2 | ≤ 2 | CC(c1cccnc1N)N1c2nc(OC[C@@]34CCCN3C[C@H](F)C4)nc3c(F)c(-c4ccc(F)c5sc(N)c(C#N)c45)c(Cl)c(c23)OC[C@@H]1CC#N (mixture of isomers) [Compound 615, 2-amino-4-((5S)-4-(1-(2-aminopyridin-3-yl)ethyl)-8-chloro-5-(cyanomethyl)-10-fluoro-2-(((2R,7aS)-2-fluorotetrahydro-1H-pyrrolizin-7a (5H)-yl)methoxy)-5,6-dihydro-4H-[1,4]oxazepino[5,6,7-de]quinazolin-9-yl)-7-fluorobenzo[b]thiophene-3-carbonitrile] |
| ≤ 2 | ≤ 2 | ≤ 2 | N#Cc1c(N)sc2c(F)ccc(-c3c(C(F)(F)F)c4c5c(nc(OC[C@@]67CCCN6C[C@H](F)C7)nc5c3F)N([C@H](CCN3CCOCC3)c3cccnc3N)CCO4)c12 (single isomer, unassigned) [Compound 685] |
| ≤ 2 | ≤ 2 | ≤ 2 | C[C@H]1CN([C@@H](c2cccnc2N)C(F)F)c2nc(OC[C@@]34CCCN3C[C@H](F)C4)nc3c(F)c(-c4ccc(F)c5sc(N)c(C#N)c45)c(C(F)(F)F)c(c23)O1 (single isomer, unassigned) [Compound 879] |
| ≤ 2 | ≤ 2 | ≤ 2 | N#Cc1c(N)sc2c(F)ccc(-c3c(C(F)(F)F)c4c5c(nc(OC[C@@]67CCCN6C[C@H](F)C7)nc5c3F)N([C@H](CC3CCOCC3)c3cccnc3N)CCO4)c12 (single isomer, unassigned) [Compound 642] |
| ≤ 2 | ≤ 2 | ≤ 2 | C[C@H](c1cccnc1N)N1CCOc2c(Cl)c(-c3cccc4sc(N)c(C#N)c34)c(F)c3nc(OC[C@@]45CCCN4C[C@H](F)C5)nc1c23 (single isomer, unassigned) [Compound 668] |
| ≤ 2 | ≤ 2 | ≤ 2 | N#Cc1c(N)sc2c(F)ccc(-c3c(C(F)(F)F)c4c5c(nc(OC[C@@]67CCCN6C[C@H](F)C7)nc5c3F)N([C@H](CC3CC(F)(F)C3)c3cccnc3N)CCO4)c12 (single isomer, unassigned) [Compound 686] |
